The text below walks through data of ChEMBL document CHEMBL1151145, “Minor Bioactive Polyacetylenes from Petrosia ficiformis” (J Nat Prod, 1990).

Series [1] in a line: Toxicity against Artemia salina after 24 hrs. It counts as organism-based. The conditions noted are these: in vivo.
Series [2] relates to Agrobacterium tumefaciens. As to the kind of experiment: Inhibition of Agrobacterium tumefaciens-induced tumor formation in potato at 0.5 mg/ml by antitumor potato disk assay. It counts as functional.
Series [3] can be described thus: Inhibition of sea urchin egg development after 48 hrs. The conditions noted are these: echinoidea, sea urchin eggs.

Values after ≈ are worked out from the molar mass of the structure shown.

In series [1], `C#CC(O)/C=C/CCCCCCCCCCCCCCCCCCCCCCCCCCCCCCCCCCC/C=C\C#CC(=O)OC` (stereo unspecified) [PETROFORMYNE B] showed an LC50 at 24 h of 0.0025 µg/mL (≈ 0.00367 µM).
In series [1], `C#CCCCCCCCCCCCCCCCC/C=C\CC/C=C/C#CC(O)C#CCCCC/C=C\CCCCCC/C=C/C(=O)C#C` (stereo unspecified) [PETROFORMYNE 6] came in with an LC50 at 24 h of 0.12 µg/mL (≈ 0.184 µM).
On the same count and under the same terms, with `C#CC(O)/C=C/CCCCCCCCCCCCCCCCCCCCCCCCCCCCCCCCC/C=C\C#CC(=O)OC` (stereo unspecified) the figure was 0.002 µg/mL (≈ 0.00306 µM).
Molecule `C#CC(O)/C=C/CC/C=C\CCCC/C=C\CCC#CC(O)C#C/C=C/CC/C=C\CCCCCCCCCCCCC/C=C/C(O)C#C` (stereo unspecified) showed an LC50 at 24 h in series [1] of 0.009 µg/mL (≈ 0.0135 µM). This molecule gave an inhibition at 500 µg/mL in series [2] of 15%. The LC50 at 48 h in series [3] amounted to 1 µg/mL (≈ 1.5 µM).
Molecule `C#CCCCCCCCCCCCCCCCC/C=C\CC/C=C/C#C[C@@H](O)C#CCCCC/C=C\CCCCCC/C=C/[C@H](O)C#C` [PETROFORMYNE 3] registered an LC50 at 24 h in series [1] of 0.003 µg/mL (≈ 0.00458 µM). Besides, the inhibition at 500 µg/mL in series [2] stood at 49%. In series [3], this molecule had an LC50 at 48 h of 10 µg/mL (≈ 15.3 µM).
In the case of `C#C[C@@H](O)/C=C/CCCCCC/C=C\CCCCC#C[C@H](O)C#C/C=C/CC/C=C\CCCCCCCCCCCCC/C=C/[C@H](O)C#C` [PETROFORMYNE 1], the LC50 at 24 h in series [1] was found to be 0.014 µg/mL (≈ 0.0209 µM). For the same molecule, 500 µg/mL produced 35% inhibition in series [2]. The molecule also showed an LC50 at 48 h in series [3] of 10 µg/mL (≈ 14.9 µM).
On the same counts, the results for `C#C/C=C\CCCCCCCCCCCCCC/C=C\CC/C=C/C#CC(O)C#CCCCC/C=C\CCCCCC/C=C/C(O)C#C` (stereo unspecified) are 0.0075 µg/mL (≈ 0.0115 µM), 43% and 50 µg/mL (≈ 76.6 µM).
For the molecule `C#C/C=C\CCCCCCCCCCCCCC/C=C\CC/C=C/C#CC(O)C#CCCCC/C=C\CCCCCC/C=C/C(=O)C#C` (stereo unspecified), the LC50 at 24 h in series [1] was found to be 0.04 µg/mL (≈ 0.0614 µM).
